This note sets out measurements from article PMC4821188 (Biological chemistry, 2010).

Where “and” joins values, the source holds several entries; their conditions need not be identical. Equal values may be shown once. *: point of attachment. EDDnp = O=[N+]([O-])c1ccc(NCCN*)c([N+](=O)[O-])c1; AMC = Cc1cc(=O)oc2cc(N*)ccc12

What all share (assay type): biochemical
Assay [1] has as its target T1, Recombinant human furin (Homo sapiens, UniProt P09958). Conditions: 4 μM substrate; 10 mM MES, 1 mM CaCl2, 0.01% Triton X-100, pH 7.0, 36.5 °C.
The target of assay [2] is T1, Recombinant human furin. Conditions: for Km / kcat / kcat/Km / hydrolysis by furin (result in words, cell spans kcat, Km, kcat/Km and R): pH 7.
In assay [3] the target is T1, Recombinant human furin.

T1 sequence (P09958 108-715 limits assumed): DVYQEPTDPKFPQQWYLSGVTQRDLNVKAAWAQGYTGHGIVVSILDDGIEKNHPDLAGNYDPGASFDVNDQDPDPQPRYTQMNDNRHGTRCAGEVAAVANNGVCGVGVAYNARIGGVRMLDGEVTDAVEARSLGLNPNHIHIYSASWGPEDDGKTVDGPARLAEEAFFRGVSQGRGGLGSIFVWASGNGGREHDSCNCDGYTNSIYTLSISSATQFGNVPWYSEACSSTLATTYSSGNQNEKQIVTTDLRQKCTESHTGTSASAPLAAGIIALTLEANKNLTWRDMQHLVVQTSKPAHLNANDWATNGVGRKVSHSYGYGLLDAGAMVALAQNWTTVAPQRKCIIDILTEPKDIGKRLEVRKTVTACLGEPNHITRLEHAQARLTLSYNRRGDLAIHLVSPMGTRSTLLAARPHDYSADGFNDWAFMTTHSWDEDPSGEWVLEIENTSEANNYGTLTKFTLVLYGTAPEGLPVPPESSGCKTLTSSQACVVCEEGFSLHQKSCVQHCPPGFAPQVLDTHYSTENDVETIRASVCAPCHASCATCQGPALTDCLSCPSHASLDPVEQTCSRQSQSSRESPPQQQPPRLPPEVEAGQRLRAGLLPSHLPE

As for `[Cl-].[K+]` [KCl], the “effect on the rate of hydrolysis of Abz-[…]-Q-EDDnp by furin” value (“effect on the rate” below) at Recombinant human furin [1] was “increased the rate of hydrolysis”.

Turning to `[Cl-].[Cl-].[Mg+2]` [Mg^2+, magnesium chloride], at Recombinant human furin [1], the “effect on the rate” value is listed as “significant increase”.

Regarding `[Cl-].[Na+]` [NaCl], at Recombinant human furin [1], the “effect on the rate” value is recorded as “no effect”.

With Abz-GIRRKRSVSHQ-EDDnp [compound 19], on Recombinant human furin [2], the “R: relative kcat/Km values in presence vs. absence of MgCl2” value (from here on “R: relative kcat/Km values”) is on record as 0.9; the Michaelis constant (Km) – broadly, the substrate concentration at which the rate is half of its maximum – is 0.42 µM and 0.39 µM; the kcat is 29.6 (30.3) s^−1; the kcat/Km is recorded as 70547 (77100) (mM.s)^−1.

Take Abz-RERRRKKR↓GLFG-Q-EDDnp [peptide 48]: on Recombinant human furin [2], the “R: relative kcat/Km values” value turned out to be 79, the kcat is recorded as 12.3(2.6) s^−1 and the kcat/Km is listed as 123000 (1555) (mM.s)^−1.

In the case of Abz-RKRSRRQVNTQ-EDDnp [peptide 1], in the assay with Recombinant human furin [3], the “pK1 of pH-profile of furin hydrolysis” value is 5.46 and 5.67. Moreover, in the assay with Recombinant human furin [2], the “R: relative kcat/Km values” value was determined as 44, the kcat is 11.3 (8.4) s^−1 and the kcat/Km is 56300 (1291) (mM.s)^−1.

For Abz-RRRKKR↓GLFG-Q-EDDnp [compound 31], at Recombinant human furin [2], the Km was 15.5 µM, the kcat turned out to be 5.0 s⁻¹ and the kcat/Km was found to be 322 mM/s.

For the compound Abz-SGRSRRAIDLQ-EDDnp [peptide 10], on Recombinant human furin [2], the “R: relative kcat/Km values” value was found to be 3.0, the kcat was 6.2 (4.3) s^−1 and the kcat/Km is 15923 (5328) (mM.s)^−1.

Consider “Abz-SRRHKR↓FAGV-Q-EDDnp (Abz-SRRHKRFAGVQ-EDDnp) [peptide 32]”, for which the “pK1 of pH-profile of furin hydrolysis” value in the assay with Recombinant human furin [3] is 5.27 and 5.42. Further, in the assay with Recombinant human furin [2], the “R: relative kcat/Km values” value is reported as 60, the kcat is recorded as 2.4 (0.21) s^−1 and the kcat/Km is 33857 (559) (mM.s)^−1.

Consider “Ac-RVRR-{AMC} [compound 38, reference compound]”, for which, on Recombinant human furin [2], the “R: relative kcat/Km values” value came to 0.1, the kcat is reported as 0.59 (0.98) s^−1 and the kcat/Km is on record as 120 (1139) (mM.s)^−1.

As to GQRKKR↓ALDT [compound 40], on Recombinant human furin [2], the “R: relative kcat/Km values” value was 0.06, the kcat is given as 3.6 (3.9) s^−1 and the kcat/Km is recorded as 829 (14130) (mM.s)^−1.

Take HHRQRR↓SVSI [compound 37]: at Recombinant human furin [2], the “R: relative kcat/Km values” value amounted to 0.1, the kcat is 28.9 (39.5) s^−1 and the kcat/Km is on record as 9031 (116088) (mM.s)^−1.

In the case of HKREKR↓QAKH [compound 39], on Recombinant human furin [2], the “R: relative kcat/Km values” value is recorded as 0.1, the kcat is recorded as 6.3 (6.9) s^−1 and the kcat/Km is 2354 (17734) (mM.s)^−1.

Regarding HNRTKR↓STDG [compound 23], at Recombinant human furin [2], the “R: relative kcat/Km values” value was 28; the Km was 0.95 µM and 0.87 µM; the kcat was 7.8 (0.26) s^−1; the kcat/Km is reported as 8210 (289) (mM.s)^−1.

Turning to HRRDKR↓SVAL [compound 17], at Recombinant human furin [2], the “R: relative kcat/Km values” value is 0.6, the kcat is listed as 12.7 (9.5) s^−1 and the kcat/Km is 23091 (36615) (mM.s)^−1.

HRREKR↓SVAL [compound 16]: at Recombinant human furin [2], the “R: relative kcat/Km values” value was 0.7; the Michaelis constant (Km) was 0.2 µM and 0.22 µM; the kcat was 7.6 (12.2) s^−1; the kcat/Km is listed as 38300 (55636) (mM.s)^−1.

HRRQKR↓SVAL [compound 14]: on Recombinant human furin [2], the “R: relative kcat/Km values” value is 1.2; the Km is 0.37 µM and 0.28 µM; the kcat is recorded as 14.9 (9.2) s^−1; the kcat/Km is on record as 40270 (32431) (mM.s)^−1.

With KIRRRR↓DVVD [compound 26], at Recombinant human furin [2], the “R: relative kcat/Km values” value is listed as 8.9; the Michaelis constant (Km) is 0.05 µM and 0.1 µM; the kcat is on record as 3.1 (0.60) s^−1; the kcat/Km was 53448 (6000) (mM.s)^−1.

As to KKRKRR↓FLGF [compound 33], at Recombinant human furin [2], the “R: relative kcat/Km values” value is listed as 4.2, the kcat was 1.1 (0.64) s^−1 and the kcat/Km is 2173 (512) (mM.s)^−1.

For KRRQRR↓RPPQ [compound 21], the “hydrolysis by furin (result in words, cell spans kcat, Km, kcat/Km and R)” value on Recombinant human furin [2] is listed as “Slow Hydrolysis”.

As to LKRRRR↓DTQQ [compound 30], at Recombinant human furin [2], the “R: relative kcat/Km values” value worked out at 0.6, the kcat is given as 6.7 (0.61) s^−1 and the kcat/Km is 1303 (2184) (mM.s)^−1.

On to LRRRRR↓DAGN [compound 25], for which, on Recombinant human furin [2], the “R: relative kcat/Km values” value is given as 9.9; the Michaelis constant (Km) is 3.6 µM and 3.3 µM; the kcat is listed as 12.3 (1.1) s^−1; the kcat/Km is given as 3455 (348) (mM.s)^−1.

For LTRQRR↓SLLP [compound 8], on Recombinant human furin [2], the “R: relative kcat/Km values” value worked out at 1.3; the Km is 0.9 µM and 0.64 µM; the kcat was 3.3 (1.8) s^−1; the kcat/Km was 3510 (2708) (mM.s)^−1.

MMRHRR↓ELQR [compound 7]: at Recombinant human furin [2], the “R: relative kcat/Km values” value was 1.7, the kcat is reported as 10.3 (16.2) s^−1 and the kcat/Km was 23409 (13508) (mM.s)^−1.

NLRRRR↓DLVD [compound 28]: on Recombinant human furin [2], the “R: relative kcat/Km values” value was 7.2, the kcat is 3.5 (2.0) s^−1 and the kcat/Km is 10606 (1470) (mM.s)^−1.

For NTRSRR↓SVPV [compound 29], at Recombinant human furin [2], the “hydrolysis by furin (result in words, cell spans kcat, Km, kcat/Km and R)” value is reported as “Slow Hydrolysis”.

Take QIRAKR↓ELSK [compound 2]: at Recombinant human furin [2], the “R: relative kcat/Km values” value is given as 6.9, the kcat is 6.7 (9.7) s^−1 and the kcat/Km is given as 5583 (808) (mM.s)^−1.

Turning to QSRRRR↓QTPP [compound 41], on Recombinant human furin [2], the “R: relative kcat/Km values” value is 0.05, the kcat is recorded as 3.4 (6.3) s^−1 and the kcat/Km was 1547 (31067) (mM.s)^−1.

RKRRKR↓ELET [compound 27]: at Recombinant human furin [2], the “R: relative kcat/Km values” value is 8.5, the kcat was 4.3 (0.23) s^−1 and the kcat/Km is 1400 (164) (mM.s)^−1.

In the case of RNRQKR↓FVLS [compound 42], on Recombinant human furin [2], the Michaelis constant (Km) worked out at 0.59 µM, the kcat came out at 0.20 s⁻¹ and the kcat/Km amounted to 337 mM/s.

As for RRRAKR↓SPKH [compound 35], at Recombinant human furin [2], the “R: relative kcat/Km values” value is recorded as 6.2, the kcat was 5.3 (8.7) s^−1 and the kcat/Km is on record as 4383 (710) (mM.s)^−1.

Consider RRRDKR↓SVAL [compound 15], for which, at Recombinant human furin [2], the “R: relative kcat/Km values” value worked out at 0.8; the Km was 0.41 µM and 0.39 µM; the kcat is 12.2 (14.6) s^−1; the kcat/Km is on record as 29658 (37505) (mM.s)^−1.

With RRRKKR↓GLSG [compound 45], on Recombinant human furin [2], the “R: relative kcat/Km values” value is reported as 38, the kcat is 6.7 (2.4) s^−1 and the kcat/Km is on record as 30500 (797) (mM.s)^−1.

As for RRRKKR↓SLFG [compound 46], at Recombinant human furin [2], the “R: relative kcat/Km values” value is reported as 54, the kcat is 7.6 (1.0) s^−1 and the kcat/Km is on record as 33043 (606) (mM.s)^−1.

RRRKKR↓SLSG [compound 47]: at Recombinant human furin [2], the “R: relative kcat/Km values” value is recorded as 14, the kcat is listed as 4.5(0.92) s^−1 and the kcat/Km is on record as 18833 (1333) (mM.s)^−1.

On to SIRHKR↓EPSV [compound 20], for which, on Recombinant human furin [2], the “R: relative kcat/Km values” value amounted to 0.9; the Michaelis-Menten constant (Km) was 2.4 µM and 2.8 µM; the kcat was 1.6 (2.1) s^−1; the kcat/Km is recorded as 646 (729) (mM.s)^−1.

For SKRSRR↓SVSV [compound 13], at Recombinant human furin [2], the “R: relative kcat/Km values” value stood at 1.5; the Km was 0.49 µM and 0.41 µM; the kcat is 18.3 (10.5) s^−1; the kcat/Km is recorded as 37347(25362) (mM.s)^−1.

Regarding SRRKRR↓DVTP [compound 6], on Recombinant human furin [2], the “R: relative kcat/Km values” value is 3.2, the kcat is 9.9 (9.2) s^−1 and the kcat/Km is 66000 (20467) (mM.s)^−1.

As for SRRKRR↓SAST [compound 22], on Recombinant human furin [2], the “R: relative kcat/Km values” value was determined as 38, the kcat is reported as 11.1 (10.0) s^−1 and the kcat/Km is 76232 (1992) (mM.s)^−1.

SRRSRR↓SLTV [compound 12]: on Recombinant human furin [2], the kcat was 6.2 (4.3) s^−1 and the kcat/Km is given as 15923 (5328) (mM.s)^−1.

SSRHRR↓ALDT [compound 36]: at Recombinant human furin [2], the “R: relative kcat/Km values” value was found to be 0.3, the kcat is 7.1 (5.6) s^−1 and the kcat/Km is given as 1707 (6488) (mM.s)^−1.

Turning to THRTRR↓STSD [compound 24], at Recombinant human furin [2], the “R: relative kcat/Km values” value was found to be 11; the Km was 1.9 µM and 1.2 µM; the kcat is 8.1 (0.44) s^−1; the kcat/Km is recorded as 4128 (370) (mM.s)^−1.

On to TRRFRR↓SITE [compound 34], for which, at Recombinant human furin [2], the “R: relative kcat/Km values” value is listed as 1.3; the Michaelis constant (Km) was 0.53 µM and 0.58 µM; the kcat is 19.8 (16.4) s^−1; the kcat/Km is reported as 37358 (28362) (mM.s)^−1.

With VQREKR↓AVGI [compound 18], at Recombinant human furin [2], the “R: relative kcat/Km values” value turned out to be 3.2; the Michaelis constant (Km) was 2.1 µM and 2.8 µM; the kcat is listed as 2.7 (1.2) s^−1; the kcat/Km is listed as 1290 (407) (mM.s)^−1.

Take VRRRRR↓YALS [compound 43]: at Recombinant human furin [2], the Km was 3.14 µM, the kcat came out at 0.60 s⁻¹ and the kcat/Km came to 193 mM/s.

VVRVRR↓ELLP [compound 5]: on Recombinant human furin [2], the “R: relative kcat/Km values” value was determined as 3.8, the kcat is recorded as 16.6 (12.2) s^−1 and the kcat/Km is given as 13071 (3466) (mM.s)^−1.
